Series [1] deals with SUDHL5. Kind of series: Induction of cytotoxicity (CellTiter-Glo, 5 h), SUDHL5. Conditions: read-out: Cytotox SUDHL5 [M] (median); SUDHL5 cells, cytotoxicity induction, CellTiter-Glo, 5 h incubation, median. A general note: ATP-based viability assays read luminescence as a measure of living cells.
In series [2] the test system is SUDHL5. Kind of series: Induction of caspase-3/7 activity (Caspase-Glo 3/7), SUDHL5. In kind it is cell-based. Conditions: caspase-3/7 induction, SUDHL5 cells, 3 h treatment; median. In a few lines:
(§1)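 DLBCL lines SUDHL5 and SUDHL10 treated with compounds for 3 h at 37 °C; caspase-3/7 activity read by Caspase-Glo 3/7 luminescence. Medium-only background subtracted; EC50 fitted with bottom fixed at 1 and top fixed at the reference compound's maximal induction.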

The next series concerns the target MCL-1 (Homo sapiens, UniProt Q07820). Kind of series: Protein-protein interaction assay MCL-1/Noxa BH3 peptide (MCL-1 assay), TR-FRET. It is filed as binding. The settings on record: MBP-MCL-1 / Noxa BH3-derived peptide, median. The gist of the method:
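IC50 came from a 4-parameter fit of the normalized 665/620 nm TR-FRET ratio (anti-MBP Eu-cryptate/streptavidin-XL665). Compounds (0.1 nM–20 μM, duplicates) were preincubated 10 min at 22 °C with 1 nM MBP-MCL-1 in pH 7 Tris/NaCl/KF buffer, then read after 1 h at 22 °C plus overnight at 4 °C.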
Background: TR-FRET usually uses a lanthanide donor and a delayed reading to cut background.

In the next series the test system is A2780. Kind of series: Anti-proliferative effect (CellTiter-Glo, 72 h), A2780. The settings on record: A2780 cells, median, read-out: IC50 antiproliferation assay A2780 [M] (median). It is filed as cell-based. The gist of the method: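 Cells plated and incubated with compounds for 72 h at 37 °C, with a parallel day 0 reference plate for time-zero signal. Viability read by CellTiter-Glo luminescence after 10 min, measured identically on the day 0 and 72 h plates.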

Series [3] has as its system SUDHL5. Kind of series: Anti-proliferative effect (CellTiter-Glo, 72 h), SUDHL5. It is filed as cell-based. The settings on record: SUDHL5 cells, antiproliferation, 72 h incubation, median, read-out: Antiproli SUDHL5 [M] (median). On the procedure:
Assessment of the Anti-Proliferative Effect of Compounds in Different Cell Lines
The impact of compounds on the proliferation of different cell lines was assessed using the CellTiter-Glo® Luminescent Cell Viability reagent from Promega (G7573). Of note, SUDHL10 and SUDHL5 (DLBCL), NCI-H929 (Multiple Myeloma), A2780 (ovarian carcinoma) as well as MV-4-11(AML) cells are sensitive to MCL-1 inhibition.
In parallel, cells were plated in a reference (day 0) plate for time zero determination.
Rim wells were excluded. The cells were incubated for 72 h hours in a humidified incubator at 37° C. The day 0 plate was measured by adding 30 μl/well of CTG solution (CellTiter-Glo® Luminescent Cell Viability reagent, Promega G7573) to time zero wells in the reference plate followed by a 10 minutes incubation and luminescence reading at 0.1 ms, using the PHERAstar FS microplate reader (BMG Labtech).
After 72 h incubation, the treated plates were measured in the same way as the day 0 plate mentioned above.

For series [4], the system named is SUDHL10. Kind of series: Induction of caspase-3/7 activity (Caspase-Glo 3/7), SUDHL10. In kind it is cell-based. Conditions: caspase-3/7 induction, SUDHL10 cells, 3 h treatment; median. The gist of the method:
as §1

Series [5] concerns SUDHL10. Kind of series: Induction of cytotoxicity (CellTiter-Glo, 5 h), SUDHL10.
Setting [6] is: read-out: Cytotox SUDHL10 [M] (median), SUDHL10 cells, cytotoxicity induction, CellTiter-Glo, 5 h incubation, median.

SMILES strings stand for the structures. Where two headings read alike, the source gives them in different places. Some results are limits rather than exact numbers.

Chain of MCL-1 (Q07820 whole entry): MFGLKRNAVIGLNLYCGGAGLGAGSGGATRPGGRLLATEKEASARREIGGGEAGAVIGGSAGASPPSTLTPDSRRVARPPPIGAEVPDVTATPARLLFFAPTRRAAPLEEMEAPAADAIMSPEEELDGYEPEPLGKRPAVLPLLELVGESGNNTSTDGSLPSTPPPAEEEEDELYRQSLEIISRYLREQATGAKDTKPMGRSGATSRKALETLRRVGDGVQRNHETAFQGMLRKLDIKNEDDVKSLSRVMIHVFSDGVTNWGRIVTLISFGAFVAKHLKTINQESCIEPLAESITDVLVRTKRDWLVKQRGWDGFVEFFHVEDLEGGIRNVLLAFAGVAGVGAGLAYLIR

The term EC50 denotes the concentration that produces a half-maximal response. A lower EC50 goes with higher potency in that assay. As to `COc1c2c(nn1C)COCCCCn1c(C(=O)O)c(CCCOc3cccc4ccccc34)c3cccc-2c31` (single isomer, unassigned) [Example 209, 3-methoxy-2-methyl-7-[3-(naphthalen-1-yloxy)propyl]-2,10,11,12,13,15-hexahydropyrazolo[4′,3′:9,10][1,6]oxazacycloundecino[8,7,6-hi]indole-8-carboxylate], the IC50 in the series with SUDHL5 [1] is above 3.3e-05 M; against MCL-1, 0.025 µM; with A2780 it was 1.58e-05 M; in the series with SUDHL5 [3], 1.58e-05 M; in the series with SUDHL10 [5] (setting [6]), above 3.3e-05 M. For the same compound, the EC50 in the series on SUDHL5 [2] and in the series on SUDHL10 [4] was above 33 µM in each case.

Regarding `CCc1nn(C)c2c1-c1c(C)ccc3c(C(C)CCOc4cccc5cc(F)ccc45)c(C(=O)O)n(c13)CCCCOC2` (single isomer, unassigned) [Example 262, 3-ethyl-7-{4-[(6-fluoronaphthalen-1-yl)oxy]butan-2-yl}-1,4-dimethyl-1,10,11,12,13,15-hexahydropyrazolo[4′,3′:9,10][1,6]oxazacycloundecino[8,7,6-hi]indole-8-carboxylic Acid], the IC50 in the series on SUDHL5 [1] was 1.67e-05 M; against MCL-1, 0.0388 µM; in the series on A2780, 7.54e-06 M; in the series on SUDHL5 [3], 4.2e-06 M; in the series on SUDHL10 [5] (setting [6]) it was 2.15e-05 M. Besides, the EC50 with SUDHL5 [2] was 22.6 µM; with SUDHL10 [4] it was above 33 µM.

Take `CCc1nn(C)c2c1-c1c(C)ccc3c(C(C)CCOc4cccc5cc(F)ccc45)c(C(=O)O)n(c13)CCCCOC2` (single isomer, unassigned) [Example 263, 3-ethyl-7-{4-[(6-fluoronaphthalen-1-yl)oxy]butan-2-yl}-1,4-dimethyl-1,10,11,12,13,15-hexahydropyrazolo[4′,3′:9,10][1,6]oxazacycloundecino[8,7,6-hi]indole-8-carboxylic Acid]: the IC50 in the series on SUDHL5 [1] is above 3.3e-05 M; against MCL-1, 0.926 µM; in the series on A2780, 1.01e-05 M; in the series with SUDHL5 [3], 4.61e-06 M; in the series on SUDHL10 [5] (setting [6]), 2.79e-05 M. Further, the EC50 in the series with SUDHL5 [2] and in the series with SUDHL10 [4] was above 33 µM in each case.

For `CCc1nn(C)c2c1-c1c(C)ccc3c(C(C)CCOc4cccc5cc(F)ccc45)c(C(=O)O)n(c13)CCCCOC2` (single isomer, unassigned) [Example 264, 3-ethyl-7-{4-[(6-fluoronaphthalen-1-yl)oxy]butan-2-yl}-1,4-dimethyl-1,10,11,12,13,15-hexahydropyrazolo[4′,3′:9,10][1,6]oxazacycloundecino[8,7,6-hi]indole-8-carboxylic Acid], the IC50 in the series on SUDHL5 [1] is above 3.3e-05 M; on MCL-1 it was 0.132 µM; in the series on A2780 it was 1.92e-05 M; with SUDHL5 [3] it was 1.67e-05 M; with SUDHL10 [5] (setting [6]), above 3.3e-05 M. Also, the EC50 in the series on SUDHL5 [2] and in the series with SUDHL10 [4] was above 33 µM each time.

With `Cc1nn(C)c2c1-c1cccc3c(CCCOc4cccc5ccccc45)c(C(=O)O)n(c13)CCCN(c1ccc(N3CCN(S(=O)(=O)N(C)C)CC3)cc1)C2` (single isomer, unassigned; enantiomer 1) [Example 1-106, 7-{4-[4-(Dimethylsulfamoyl)piperazin-1-yl]phenyl}-9,11-dimethyl-1-[3-(1-naphthyloxy)propyf]-4,5,6,7,8,9-hexahydropyrazolo[3′,4′:7,8][1,5]diazecino[9,10,1-hi]indole-2-carboxylic Acid (Enantiomer 1)], the IC50 in the series with SUDHL5 [1] is 1.49e-05 M; against MCL-1, 0.0163 µM; with A2780 (Homo sapiens, A2780, 72 h) it was 8.83e-06 M; with SUDHL5 [3] (Homo sapiens, SU-DHL-5, 72 h) it was 4.15e-06 M; in the series on SUDHL10 [5] (Homo sapiens, SU-DHL10, 5 h, read-out: Cytotox SUDHL10 [M] (median), SUDHL10 cells, cytotoxicity induction, CellTiter-Glo, 5 h incubation, median), 1.89e-05 M. Also, the EC50 in the series with SUDHL5 [2] amounted to 11.5 µM; in the series on SUDHL10 [4] it was 9.37 µM.

The values are drawn from US10981932B2, “Macrocyclic indole derivatives” (Bayer Aktiengesellschaft, priority 2016, dated 2021).
